Results taken from patent US20250009745A1, “CDK INHIBITOR” (SHANGHAI QILU PHARMACEUTICAL RESEARCH AND DEVELOPMENT …, priority 2021, published 2025).

How the values were obtained:
CDK2 = target: T1, CDK2 (Homo sapiens, UniProt P24941); assay: CDK enzymology experiment in vitro, capillary mobility shift assay (MSA); type: biochemical; conditions: read-out: CDK2 (nM) inhibitory IC50
T1 construct: purchased Carna Company
Procedure: (§1) CDK1/CDK2/CDK4/CDK6/CDK7/CDK9 were purchased from Carna Company; Carliper substrate CTD3/substrate 18/substrate 8 were purchased from Gil Biochemical Company; Dinaciclib/Palbociclib were purchased from Selleckchem Company; DMSO was purchased from Sigma Company; 384-well plates were purchased from Corning Company.
(§2) • (1) Preparation of 1×Kinase buffer. • (2) Preparation of compound concentration gradient: Test concentration of the test compound was started at 1 μM, 10 μM or 30 μM, 3-fold dilution, 10 concentrations, detected in duplicate. The test compound was diluted to a 100-fold final concentration with 100% DMSO solution in a 384 source plate. Liquid handler Echo 550 was used to transfer 250 nL of 100-fold final concentration of the compound to the target plate 384-well plate. […] The 384-well plate was centrifuged at 1000 rpm for 30 seconds, and shaken to mix uniformly. • (10) The conversion rate was read with Caliper EZ Reader.
(§3) Where, conversion %_sample is the readings of conversion rate of the sample; conversion %_min: the average value of negative control wells, representing the readings of conversion rate of wells without enzyme activity; conversion %_max: the average value of positive control wells, representing the readings of conversion rate of wells without compound inhibition.
(§4) Taking the log value of the concentration as the X-axis, and the percentage inhibition rate as the Y-axis, the dose-effect curve was fitted using the log(inhibitor) vs. response—Variable slope of the analysis software GraphPad Prism 5 so as to obtain the IC50 value of each compound on the enzyme activity.
(§5) Y=Bottom+(Top−Bottom)/(1+10^((Log IC50−X)*HillSlope)). Calculation formula: […]

CDK4 = target: T2, CDK4 (Homo sapiens, UniProt P11802); assay: as above; type: biochemical; conditions: read-out: CDK4 (nM) inhibitory IC50
T2 construct: purchased Carna Company
T2 sequence (P11802 whole entry): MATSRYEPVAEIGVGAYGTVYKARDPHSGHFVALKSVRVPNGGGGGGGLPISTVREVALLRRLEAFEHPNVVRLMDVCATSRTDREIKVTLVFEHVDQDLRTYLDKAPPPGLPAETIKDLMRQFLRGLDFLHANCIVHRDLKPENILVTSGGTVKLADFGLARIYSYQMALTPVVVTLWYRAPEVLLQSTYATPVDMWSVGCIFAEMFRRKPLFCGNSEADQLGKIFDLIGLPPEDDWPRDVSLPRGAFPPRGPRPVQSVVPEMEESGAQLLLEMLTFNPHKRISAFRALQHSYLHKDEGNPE
T2 sequence (P30281 whole entry partner): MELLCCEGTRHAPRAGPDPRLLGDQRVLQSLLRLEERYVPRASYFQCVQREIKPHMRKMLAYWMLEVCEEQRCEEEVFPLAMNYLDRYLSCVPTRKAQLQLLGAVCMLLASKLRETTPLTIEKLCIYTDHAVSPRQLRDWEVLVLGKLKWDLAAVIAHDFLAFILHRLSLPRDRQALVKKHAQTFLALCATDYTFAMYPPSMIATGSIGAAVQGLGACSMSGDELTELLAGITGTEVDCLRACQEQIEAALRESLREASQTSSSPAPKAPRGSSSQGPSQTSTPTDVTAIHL
Procedure: as §1, §2, §3, §4, §5

Row | Compound | IC50 (CDK2) [nM] | IC50 (CDK4) [nM]
1 | N#Cc1cnc(NC2CCN(S(=O)(=O)c3ccc(Br)cc3)CC2)nc1N[C@H]1CCOC1 [Compound 106] | 10 to 50 | 100 to 1000
2 | C[C@@H](CO)Nc1nc(NC2CCN(S(=O)(=O)c3cnn(C)c3)CC2)ncc1C#N [Compound 69] | 10 to 50 | 100 to 1000
3 | CC(C)S(=O)(=O)N1CCC(Nc2ncc(C#N)c(NC3CCCC3)n2)CC1 [Compound 29] | 10 to 50 | 10 to 50
4 | Cn1cc(S(=O)(=O)N2CC[C@@H](Nc3ncc(C(F)(F)F)c(O[C@H]4CCOC4)n3)[C@@H](F)C2)cn1 [Compound 128] | 10 to 50 | 100 to 1000
5 | CO[C@@H]1CCC[C@H]1Nc1nc(NC2CCN(S(=O)(=O)c3cnn(C)c3)CC2)ncc1C#N [Example 14] | 10 to 50 | 100 to 1000
6 | CS(=O)(=O)N1CCC(Nc2ncc(C#N)c(-c3ccccc3)n2)CC1 [Example 4, 2-((1-(Methylsulfonyl)piperidin-4-yl)amino)-4-phenylpyrimidine-5-carbonitrile] | 10 to 50 | 10 to 50
7 | Cn1cc(S(=O)(=O)N2CCC(Nc3ncc(C#N)c(N[C@@H]4CCC[C@@]4(C)O)n3)CC2)cn1 (single isomer, unassigned) [Example 20] | 10 to 50 | 100 to 1000
8 | C[C@@H]1COCCN1c1nc(NC2CCN(S(=O)(=O)c3cnn(C)c3)CC2)ncc1C#N [Compound 38] | 10 to 50 | 50 to 100
9 | C[C@H]1COCCN1c1nc(NC2CCN(S(=O)(=O)c3cnn(C)c3)CC2)ncc1C#N [Compound 75] | 10 to 50 | 10 to 50
10 | CN1CC[C@@H](Oc2nc(NC3CCN(S(=O)(=O)c4cnn(C)c4)CC3)ncc2C#N)C1 [Compound 73] | 50 to 100 | 100 to 1000
11 | Cn1cc(S(=O)(=O)N2CCC(Nc3ncc(C#N)c(NC4CCOCC4)n3)CC2)cn1 [Compound 81] | 10 to 50 | 100 to 1000
12 | Cn1cc(S(=O)(=O)N2CCC(Nc3ncc(C#N)c(NC4COC4)n3)CC2)cn1 [Compound 80] | 2.5 to 10 | 100 to 1000
13 | CN1CC[C@H](Nc2nc(NC3CCN(S(=O)(=O)c4cnn(C)c4)CC3)ncc2C#N)C1 [Compound 72] | 2.5 to 10 | 10 to 50
14 | C[C@H](CO)Nc1nc(NC2CCN(S(=O)(=O)c3cnn(C)c3)CC2)ncc1C#N [Compound 70] | 10 to 50 | 50 to 100
15 | Cn1cc(S(=O)(=O)N2CCC(Nc3ncc(C#N)c(O[C@H]4CCOC4)n3)CC2)cn1 [Compound 64] | 2.5 to 10 | 10 to 50
16 | Cn1cc(S(=O)(=O)N2CCC(Nc3cc(N[C@H]4CCOC4)c(C#N)cn3)CC2)cn1 [Compound 164] | 10 to 50 | 50 to 100
17 | Cn1cc(S(=O)(=O)N2CCC(Nc3ncc(C#N)c(O[C@H]4CC[C@H](O)C4)n3)CC2)cn1 (relative stereo) [Compound 55] | 2.5 to 10 | 10 to 50
18 | Cn1cc(S(=O)(=O)N2CCC(Nc3ncc(C#N)c(N[C@H]4CCC[C@H]4O)n3)CC2)cn1 [Compound 48] | 2.5 to 10 | 10 to 50
19 | Cn1cc(S(=O)(=O)N2CCC(Nc3ncc(C#N)c(O[C@@H]4CCC[C@@H]4O)n3)CC2)cn1 (relative stereo) [Compound 65] | 2.5 to 10 | 10 to 50
20 | Cn1cc(S(=O)(=O)N2CCC(Nc3ncc(C(F)(F)F)c(O[C@H]4CCOC4)n3)C(F)(F)C2)cn1 (stereo partly shown) [Compound 129] | 2.5 to 10 | 10 to 50
21 | N#Cc1cnc(NC2CCN(S(=O)(=O)c3ccccn3)CC2)nc1NC1CCCC1 [Compound 36] | 2.5 to 10 | 2.5 to 10
22 | Cn1cc(S(=O)(=O)N2CCC(Nc3ncc(C#N)c(N[C@H]4CC[C@H](O)C4)n3)CC2)cn1 (single isomer, unassigned) [Compound 52] | 2.5 to 10 | 10 to 50
23 | Cn1cc(S(=O)(=O)N2CCC(Nc3ncc(C(F)(F)F)c(O[C@@H]4COC[C@@H]4F)n3)CC2)cn1 [Compound 124] | 2.5 to 10 | 100 to 1000

The remaining lines, values ahead:

Row | IC50 (CDK2) [nM] | IC50 (CDK4) [nM] | Compound
24 | 2.5 to 10 | 10 to 50 | Cn1cc(S(=O)(=O)N2CCC(Nc3ncc(C#N)c(NC4CCC(F)(F)C4)n3)CC2)cn1 (stereo not shown) [Compound 41]
25 | 2.5 to 10 | 10 to 50 | Cn1ccc(S(=O)(=O)N2CCC(Nc3ncc(C#N)c(NC4CCCC4)n3)CC2)n1 [Compound 33]
26 | 2.5 to 10 | 10 to 50 | Cn1cc(S(=O)(=O)N2CCC(Nc3ncc(C#N)c(NC4CC(F)(F)C4)n3)CC2)cn1 [Compound 78]
27 | 2.5 to 10 | 10 to 50 | Cn1cc(S(=O)(=O)N2CCC(Nc3ncc(C#N)c(O[C@@H]4CC[C@@H](O)C4)n3)CC2)cn1 (single isomer, unassigned) [Compound 57]
28 | 2.5 to 10 | 50 to 100 | CN(C)[C@@H]1CCCC1Nc1nc(NC2CCN(S(=O)(=O)c3cnn(C)c3)CC2)ncc1C#N (stereo partly shown) [Example 23]
29 | 2.5 to 10 | 10 to 50 | CN1CC[C@@H](Nc2nc(NC3CCN(S(=O)(=O)c4cnn(C)c4)CC3)ncc2C#N)C1 [Compound 71]
30 | 2.5 to 10 | 10 to 50 | Cn1cc(S(=O)(=O)N2CCC(Nc3ncc(C#N)c(NC4CCCCC4)n3)CC2)cn1 [Compound 79]
31 | 0.5 to 2.5 | 2.5 to 10 | N#Cc1cnc(NC2CCN(S(=O)(=O)c3ccc(C4=CCNCC4)cc3)CC2)nc1N[C@@H]1CCC[C@H]1O [Compound 91]
32 | 0.5 to 2.5 | 10 to 50 | Cn1cc(S(=O)(=O)N2CC[C@@H](Nc3ncc(C(F)(F)F)c(O[C@H]4CCOC4)n3)[C@H](F)C2)cn1 [Compound 125]
33 | 0.5 to 2.5 | 2.5 to 10 | CC(C)(O)Cn1cc(S(=O)(=O)N2CCC(Nc3ncc(C(F)(F)F)c(O[C@H]4CCOC4)n3)CC2)cn1 [Compound 156]
34 | < 0.5 | 10 to 50 | NC(=O)Cn1cc(S(=O)(=O)N2CCC(Nc3ncc(C(F)(F)F)c(O[C@H]4CCOC4)n3)CC2)cn1 [Compound 134]
35 | 0.5 to 2.5 | 10 to 50 | CC(C)n1cc(S(=O)(=O)N2CCC(Nc3ncc(C(F)(F)F)c(O[C@H]4CCOC4)n3)CC2)cn1 [Compound 110]
36 | 0.5 to 2.5 |  | Cn1cc(-c2ccc(S(=O)(=O)N3CCC(Nc4ncc(C#N)c(N[C@@H]5CCC[C@H]5O)n4)CC3)cc2)cn1 [Compound 60]
37 | 0.5 to 2.5 | 2.5 to 10 | Cn1cc(S(=O)(=O)N2CCC(Nc3ncc(C#N)c(SC4CCCC4)n3)CC2)cn1 [Compound 96]
38 | 2.5 to 10 | 2.5 to 10 | Cn1cc(-c2ccc(S(=O)(=O)N3CCC(Nc4ncc(C#N)c(N[C@H]5CCC[C@@H]5O)n4)CC3)cc2)cn1 [Compound 59]
39 | 0.5 to 2.5 | 2.5 to 10 | Cn1cc(-c2ccc(S(=O)(=O)N3CCC(Nc4ncc(C#N)c(NC5(C)CCOC5)n4)CC3)cc2)cn1 (stereo not shown) [Compound 150]
40 | 2.5 to 10 | 10 to 50 | Cn1cc(S(=O)(=O)N2CCC(Nc3ncc(C#N)c(O[C@@H]4CCC[C@H]4O)n3)CC2)cn1 (relative stereo) [Compound 68]
41 | 0.5 to 2.5 | 2.5 to 10 | CC(C)(O)c1ccc(S(=O)(=O)N2CCC(Nc3ncc(C#N)c(NC4CCCC4)n3)CC2)cc1 [Example 24, 4-(Cyclopentylamino)-2-((1-((4-(2-hydroxypropan-2-yl)phenyl)sulfonyl)piperidin-4-yl)amino)pyrimidine-5-carbonitrile]
42 | 0.5 to 2.5 | 10 to 50 | Cn1cc(S(=O)(=O)N2CCC(Nc3ncc(C#N)c(O[C@H]4CC[C@@H](O)C4)n3)CC2)cn1 (relative stereo) [Compound 58]
43 | 0.5 to 2.5 | 10 to 50 | Cn1cc(S(=O)(=O)N2CCC(Nc3ncc(C#N)c(S(=O)(=O)C4CCCC4)n3)CC2)cn1 [Compound 97]
44 | 0.5 to 2.5 | 10 to 50 | Cn1cc(S(=O)(=O)N2CCC(Nc3ncc(C#N)c(C=C4CCCC4)n3)CC2)cn1 [Example 9, 4-(Cyclopentylidenemethyl)-2-((1-((1-methyl-1H-pyrazol-4-yl)sulfonyl)piperidin-4-yl)amino)pyrimidine-5-carbonitrile]
45 | 0.5 to 2.5 | 2.5 to 10 | Cn1cc(-c2ccc(S(=O)(=O)N3CCC(Nc4ncc(C#N)c(N[C@@H]5CC[C@@H](O)C5)n4)CC3)cc2)cn1 (single isomer, unassigned) [Compound 63]
46 | 0.5 to 2.5 | 10 to 50 | O=S(=O)(c1ccccn1)N1CCC(Nc2ncc(C(F)(F)F)c(O[C@H]3CCOC3)n2)CC1 [Compound 109]
47 | 0.5 to 2.5 | 10 to 50 | Cn1cc(S(=O)(=O)N2CCC(Nc3ncc(C(F)(F)F)c(O[C@@H]4CCOC4)n3)CC2)cn1 [Compound 88]
48 | 0.5 to 2.5 | 10 to 50 | Cn1cc(-c2ccc(S(=O)(=O)N3CCC(Nc4ncc(C#N)c(N[C@@H]5CCC[C@H]5O)n4)CC3)cc2)cn1 [Compound 50]
49 | < 0.5 | 2.5 to 10 | O=S(=O)(c1cnn(S(=O)(=O)c2cn[nH]c2)c1)N1CCC(Nc2ncc(C(F)(F)F)c(O[C@H]3CCOC3)n2)CC1 [Example 26, (S)—N-(1-((1-((1H-Pyrazol-4-yl)sulfonyl)-1H-pyrazol-4-yl)sulfonyl)piperidin-4-yl)-4-((tetrahydrofuran-3-yl)oxy)-5-(trifluoromethyl)pyrimidin-2-amine]
